Test system: yeast genes (expressed mRNA)
Test: DNA chip measurement of expressed mRNA of yeast genes after culture with a toxic chemical substance
Format: cell-based, Saccharomyces cerevisiae S288C
Outline: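 S. cerevisiae S288C grown at 25 °C in YPD, exposed in log phase for 2 h to a toxicant at growth-inhibiting, non-lethal concentration. Cy3/Cy5-labelled cDNA from poly(A) mRNA hybridized to whole-genome chip at 65 °C >12 h. Ratio to untreated control, ≥2 significant.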

## C[S+](C)[O-] [(15), Dimethyl sulfoxide]
Yeast gene YJL152W, cultured two hours with substance
  The level of expressed mRNA in the presence of chemical substance/The level of expressed mRNA in the absence of chemical substance: 0.8
Yeast gene YJL186W, cultured two hours with substance
  The level of expressed mRNA in the presence of chemical substance/The level of expressed mRNA in the absence of chemical substance: 2.5
Yeast gene YJR030C, cultured two hours with the chemical substance
  level of expressed mRNA in the presence of chemical substance / level in the absence of chemical substance: 0.8
Yeast gene YJR074W, cultured two hours with substance
  The level of expressed mRNA in the presence of chemical substance/The level of expressed mRNA in the absence of chemical substance: 3.4
Yeast gene YKL051W, cultured two hours with the chemical substance
  level of expressed mRNA in the presence of chemical substance / level in the absence of chemical substance: 1.5
Yeast gene YKL097C, cultured two hours with the chemical substance
  level of expressed mRNA in the presence of chemical substance / level in the absence of chemical substance: 0.8
Yeast gene YKL100C, cultured two hours with the chemical substance
  level of expressed mRNA in the presence of chemical substance / level in the absence of chemical substance: 1.7
Yeast gene YKR040C, cultured two hours with the chemical substance
  level of expressed mRNA in the presence of chemical substance / level in the absence of chemical substance: 1.1
Yeast gene YKR046C, cultured two hours with substance
  The level of expressed mRNA in the presence of chemical substance/The level of expressed mRNA in the absence of chemical substance: 2.9
Yeast gene YLR041W, cultured two hours with the chemical substance
  The level of expressed mRNA in the presence of chemical substance/The level of expressed mRNA in the absence of chemical substance: 1.3
Yeast gene YLR132C, cultured two hours with substance
  The level of expressed mRNA in the presence of chemical substance/The level of expressed mRNA in the absence of chemical substance: 2.3
Yeast gene YLR149C, cultured two hours with substance
  The level of expressed mRNA in the presence of chemical substance/The level of expressed mRNA in the absence of chemical substance: 1.3
Yeast gene YLR151C, cultured two hours with the substance
  The level of expressed mRNA in the presence of chemical substance/The level of expressed mRNA in the absence of chemical substance: 0.7
Yeast gene YLR152C, cultured two hours with substance
  The level of expressed mRNA in the presence of chemical substance/The level of expressed mRNA in the absence of chemical substance: 0.8
Yeast gene YLR205C, cultured two hours with substance
  The level of expressed mRNA in the presence of chemical substance/The level of expressed mRNA in the absence of chemical substance: 2.5
Yeast gene YLR226W, cultured two hours with the chemical substance
  level of expressed mRNA in the presence of chemical substance / level in the absence of chemical substance: 1.3
Yeast gene YLR304C, mitochondria-located protein gene, cultured two hours with substance
  The level of expressed mRNA in the presence of chemical substance/The level of expressed mRNA in the absence of chemical substance: 1.6
Yeast gene YLR307W
  The level of expressed mRNA in the presence of chemical substance/The level of expressed mRNA in the absence of chemical substance: 3.9
Yeast gene YLR338W, cultured two hours with the chemical substance
  level of expressed mRNA in the presence of chemical substance / level in the absence of chemical substance: 1.5
Yeast gene YLR391W
  The level of expressed mRNA in the presence of chemical substance/The level of expressed mRNA in the absence of chemical substance: 3.9
Yeast gene YLR392C, cultured two hours with the chemical substance
  level of expressed mRNA in the presence of chemical substance / level in the absence of chemical substance: 0.5
Yeast gene YLR395C, mitochondria-located protein gene, cultured two hours with substance
  The level of expressed mRNA in the presence of chemical substance/The level of expressed mRNA in the absence of chemical substance: 0.4
Yeast gene YLR415C, cultured two hours with the chemical substance
  level of expressed mRNA in the presence of chemical substance / level in the absence of chemical substance: 1.0
Yeast gene YLR427W, cultured two hours with the chemical substance
  level of expressed mRNA in the presence of chemical substance / level in the absence of chemical substance: 0.8
Yeast gene YLR444C, cultured two hours with the substance
  The level of expressed mRNA in the presence of chemical substance/The level of expressed mRNA in the absence of chemical substance: 1.3
Yeast gene YML013W, cultured two hours with the chemical substance
  level of expressed mRNA in the presence of chemical substance / level in the absence of chemical substance: 2.2
Yeast gene YML029W, cultured two hours with the chemical substance
  level of expressed mRNA in the presence of chemical substance / level in the absence of chemical substance: 0.8
Yeast gene YML041C, cultured two hours with the chemical substance
  level of expressed mRNA in the presence of chemical substance / level in the absence of chemical substance: 1.0
Yeast gene YML079W, cultured two hours with the chemical substance
  level of expressed mRNA in the presence of chemical substance / level in the absence of chemical substance: 0.3
Yeast gene YML128C, cultured two hours with substance
  The level of expressed mRNA in the presence of chemical substance/The level of expressed mRNA in the absence of chemical substance: 2.6
Yeast gene YMR031C, cultured two hours with the substance
  The level of expressed mRNA in the presence of chemical substance/The level of expressed mRNA in the absence of chemical substance: 0.7
Yeast gene YMR068W, cultured two hours with the chemical substance
  level of expressed mRNA in the presence of chemical substance / level in the absence of chemical substance: 2.2
Yeast gene YMR071C, cultured two hours with the chemical substance
  level of expressed mRNA in the presence of chemical substance / level in the absence of chemical substance: 0.8
Yeast gene YMR083W, mitochondria-located protein gene, cultured two hours with substance
  The level of expressed mRNA in the presence of chemical substance/The level of expressed mRNA in the absence of chemical substance: 1.3
Yeast gene YMR090W, cultured two hours with substance
  The level of expressed mRNA in the presence of chemical substance/The level of expressed mRNA in the absence of chemical substance: 1.9
Yeast gene YMR160W, cultured two hours with the chemical substance
  level of expressed mRNA in the presence of chemical substance / level in the absence of chemical substance: 1.5
Yeast gene YNL026W, cultured two hours with the chemical substance
  level of expressed mRNA in the presence of chemical substance / level in the absence of chemical substance: 0.8
Yeast gene YNL058C, cultured two hours with the chemical substance
  level of expressed mRNA in the presence of chemical substance / level in the absence of chemical substance: 2.2
Yeast gene YNL063W, cultured two hours with the chemical substance
  level of expressed mRNA in the presence of chemical substance / level in the absence of chemical substance: 0.7
Yeast gene YNL176C, cultured two hours with the chemical substance
  level of expressed mRNA in the presence of chemical substance / level in the absence of chemical substance: 0.8
Yeast gene YNL194C, cultured two hours with the chemical substance
  level of expressed mRNA in the presence of chemical substance / level in the absence of chemical substance: 0.5
Yeast gene YNL200C, cultured two hours with the chemical substance
  level of expressed mRNA in the presence of chemical substance / level in the absence of chemical substance: 0.8
Yeast gene YNL241C, cultured for two hours with substance
  The level of expressed mRNA in the presence of chemical substance/The level of expressed mRNA in the absence of chemical substance: 7.0
Yeast gene YNL253W, cultured two hours with the chemical substance
  level of expressed mRNA in the presence of chemical substance / level in the absence of chemical substance: 0.5
Yeast gene YNL276C, cultured two hours with the chemical substance
  level of expressed mRNA in the presence of chemical substance / level in the absence of chemical substance: 0.5
Yeast gene YNR051C, cultured two hours with the chemical substance
  level of expressed mRNA in the presence of chemical substance / level in the absence of chemical substance: 1.2
Yeast gene YNR074C, cultured two hours with substance
  The level of expressed mRNA in the presence of chemical substance/The level of expressed mRNA in the absence of chemical substance: 0.8
Yeast gene YOL026C, cultured two hours with the chemical substance
  level of expressed mRNA in the presence of chemical substance / level in the absence of chemical substance: 0.9
Yeast gene YOR007C, cultured two hours with substance
  The level of expressed mRNA in the presence of chemical substance/The level of expressed mRNA in the absence of chemical substance: 1.3
Yeast gene YOR022C, cultured two hours with the chemical substance
  level of expressed mRNA in the presence of chemical substance / level in the absence of chemical substance: 0.8
Yeast gene YOR049C, cultured two hours with substance
  The level of expressed mRNA in the presence of chemical substance/The level of expressed mRNA in the absence of chemical substance: 1.3
Yeast gene YOR087W, cultured two hours with the chemical substance
  level of expressed mRNA in the presence of chemical substance / level in the absence of chemical substance: 0.8
Yeast gene YOR138C, cultured two hours with the chemical substance
  level of expressed mRNA in the presence of chemical substance / level in the absence of chemical substance: 1.0
Yeast gene YOR152C, cultured two hours with substance
  The level of expressed mRNA in the presence of chemical substance/The level of expressed mRNA in the absence of chemical substance: 3.6
Yeast gene YOR187W, mitochondria-located protein gene, cultured two hours with substance
  The level of expressed mRNA in the presence of chemical substance/The level of expressed mRNA in the absence of chemical substance: 1.3
Yeast gene YOR215C, cultured two hours with substance
  The level of expressed mRNA in the presence of chemical substance/The level of expressed mRNA in the absence of chemical substance: 0.8
Yeast gene YOR248W, cultured two hours with substance
  The level of expressed mRNA in the presence of chemical substance/The level of expressed mRNA in the absence of chemical substance: 8.8
Yeast gene YOR253W, cultured two hours with the chemical substance
  level of expressed mRNA in the presence of chemical substance / level in the absence of chemical substance: 1.1
Yeast gene YOR267C, cultured two hours with the chemical substance
  level of expressed mRNA in the presence of chemical substance / level in the absence of chemical substance: 1.3
Yeast gene YOR325W, cultured two hours with the chemical substance
  level of expressed mRNA in the presence of chemical substance / level in the absence of chemical substance: 0.7
Yeast gene YOR382W, cultured two hours with substance
  The level of expressed mRNA in the presence of chemical substance/The level of expressed mRNA in the absence of chemical substance: 2.1
Yeast gene YOR386W, mitochondria-located protein gene, cultured two hours with substance
  The level of expressed mRNA in the presence of chemical substance/The level of expressed mRNA in the absence of chemical substance: 1.3
Yeast gene YPL005W, cultured two hours with the chemical substance
  level of expressed mRNA in the presence of chemical substance / level in the absence of chemical substance: 1.2
Yeast gene YPL087W, cultured two hours with substance
  The level of expressed mRNA in the presence of chemical substance/The level of expressed mRNA in the absence of chemical substance: 1.3
Yeast gene YPL150W, cultured two hours with the chemical substance
  level of expressed mRNA in the presence of chemical substance / level in the absence of chemical substance: 1.1
Yeast gene YPL152W, cultured two hours with the chemical substance
  level of expressed mRNA in the presence of chemical substance / level in the absence of chemical substance: 2.3
Yeast gene YPL168W, cultured two hours with the chemical substance
  level of expressed mRNA in the presence of chemical substance / level in the absence of chemical substance: 0.8
Yeast gene YPL180W, cultured two hours with the chemical substance
  level of expressed mRNA in the presence of chemical substance / level in the absence of chemical substance: 0.7
Yeast gene YPL188W, cultured two hours with the chemical substance
  level of expressed mRNA in the presence of chemical substance / level in the absence of chemical substance: 0.8
Yeast gene YPL206C, cultured two hours with substance
  The level of expressed mRNA in the presence of chemical substance/The level of expressed mRNA in the absence of chemical substance: 0.8
Yeast gene YPL221W, cultured two hours with the chemical substance
  level of expressed mRNA in the presence of chemical substance / level in the absence of chemical substance: 1.0
Yeast gene YPL225W, cultured two hours with the chemical substance
  level of expressed mRNA in the presence of chemical substance / level in the absence of chemical substance: 0.9
Yeast gene YPR014C, cultured two hours with the substance
  The level of expressed mRNA in the presence of chemical substance/The level of expressed mRNA in the absence of chemical substance: 0.9
Yeast gene YPR023C, cultured two hours with substance
  The level of expressed mRNA in the presence of chemical substance/The level of expressed mRNA in the absence of chemical substance: 0.8
Yeast gene YPR037C, mitochondria-located protein gene, cultured two hours with substance
  The level of expressed mRNA in the presence of chemical substance/The level of expressed mRNA in the absence of chemical substance: 4.1
Yeast gene YPR049C, cultured two hours with the chemical substance
  level of expressed mRNA in the presence of chemical substance / level in the absence of chemical substance: 1.5
Yeast gene YPR146C, cultured two hours with the chemical substance
  level of expressed mRNA in the presence of chemical substance / level in the absence of chemical substance: 0.9
Yeast gene YPR148C, cultured two hours with the chemical substance
  level of expressed mRNA in the presence of chemical substance / level in the absence of chemical substance: 1.7
Yeast gene YPR172W, cultured two hours with the chemical substance
  level of expressed mRNA in the presence of chemical substance / level in the absence of chemical substance: 1.5
